# Measurements reported in publication PMC7051184, “C9orf72 arginine-rich dipeptide repeat proteins disrupt karyopherin-mediated nuclear import” (eLife, 2020).
# Key:
# Format in all cases: biochemical, human
# RPS6 = test: DPR aggregation assay and western blot, RPS6; conditions: Fig 5-suppl 3C, normalized to untreated HEK on same membrane;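 further: RNA rows contain added 20 µg total HEK RNA while no-RNA rows lack it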
# Description: (§1) Supernatant and pellet fractions (for all 5 DPRs, and control/buffer only) were prepared as in the nuclear transport assays, by adding 100 µM 10mers to 2.5 mg/ml HEK lysate in 100 µL TRB. Supernatants were boiled in Laemmli (BioRad) for 5 min. Pellets were boiled for 15 min followed by sonication in order to fully disperse aggregates for SDS-PAGE. Equal volumes of supernatant and pellet fractions were run on 4–12% Bolt Bis-Tris Plus gels (ThermoFisher), transferred to nitrocellulose membrane using an iBlot2 dry blotting system (ThermoFisher). Protein loading was analyzed by BLOT-Faststain (G-biosciences, St. Louis, MO), according to the manufacterers’ instructions. For immunodetection, membranes were blocked with 5% non-fat milk in TBST and probed by sequential incubation with the primary antibodies as detailed in the table below. Detection was by HRP-conjugated secondary antibodies/chemiluminescence using an ImageQuant LAS 4000 system (GE, Chicago, IL). To permit sequential probing of membranes without stripping, signals were quenched by incubation with prewarmed 30% H20_2 for 20 min ([Sennepin et al., 2009]). Band intensities were measured by ImageQuant software. For pellet vs. supernatant fractions, all were expressed as percent untreated control. For blots in Figure 1E, samples were run on 4–20% SDS PAGE minigels (ThermoFisher) and blotted to PVDF membranes (Immun-Blot PVDF, Bio-Rad) using the Bio-Rad TransBlot Turbo apparatus, and probed as above. The chemiluminescence signal was captured with a Bio-Rad ChemiDoc XRS+ digital imaging system.
# RanGAP1 = test: DPR aggregation assay and western blot, RanGAP1; conditions: Fig 5-suppl 3C, normalized to untreated HEK on same membrane
# Description: as §1
# importin α = test: DPR aggregation assay and western blot, ImpA; conditions: Fig 5-suppl 3C, normalized to untreated HEK on same membrane;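 further: RNA rows contain added 20 µg total HEK RNA while no-RNA rows lack it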
# Description: as §1
# transportin-1 (Tnpo1) = test: DPR aggregation assay and western blot, Tnpo1; conditions: Fig 5-suppl 3C, normalized to untreated HEK on same membrane;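 further: RNA rows contain added 20 µg total HEK RNA while no-RNA rows lack it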
# Description: as §1
# [1] = DPR aggregate formation in HEK lysate (pellet vs. supernatant, total protein); conditions: transport assay lysate
# Description: as §1, with “For blots in Figure 1E, samples were run on 4–20% SDS PAGE minigels (ThermoFisher) and blotted to PVDF membranes (Immun-Blot PVDF, Bio-Rad) using the Bio-Rad TransBlot Turbo apparatus, and probed as above. The chemiluminescence signal was captured with a Bio-Rad ChemiDoc XRS+ digital imaging system.” left out
# TDP-43 = test: DPR aggregation assay and western blot, TDP-43; conditions: Fig 5-suppl 3C, normalized to untreated HEK on same membrane
# Description: as §1
# importin β = test: DPR aggregation assay and western blot, ImpB; conditions: Fig 5-suppl 3C, normalized to untreated HEK on same membrane;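 further: RNA rows contain added 20 µg total HEK RNA while no-RNA rows lack it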
# Description: as §1
# [2] = Pellet, no RNA (Untreated), blot 1
# [3] = Pellet, no RNA (Untreated), blot 2
# [4] = Supernatant, no RNA (Untreated), blot 1
# [5] = Supernatant, no RNA (Untreated), blot 2
substance,measurement,setting,value
GA10: Synthetic 10-mer GA dipeptide repeat with C-terminal lysine and cysteine (GAGAGAGAGAGAGAGAGAGAKC),"Rps6 band density, % untr control","RPS6; Pellet, RNA, blot 1",45.85%
same,"Rps6 band density, % untr control","RPS6; Pellet, RNA, blot 2",60.48%
same,"Rps6 band density, % untr control",RPS6; [2],113.52%
same,"Rps6 band density, % untr control",RPS6; [3],119.87%
same,"Rps6 band density, % untr control","RPS6; Supernatant, RNA, blot 1",64.65%
same,"Rps6 band density, % untr control","RPS6; Supernatant, RNA, blot 2",73.01%
same,"Rps6 band density, % untr control",RPS6; [4],90.06%
same,"Rps6 band density, % untr control",RPS6; [5],67.32%
same,"RanGAP1 band density, % untr control","RanGAP1; Pellet, RNA, blot 1",93.93%
same,"RanGAP1 band density, % untr control","RanGAP1; Pellet, RNA, blot 2",89.10%
same,"RanGAP1 band density, % untr control",RanGAP1; [2],87.31%
same,"RanGAP1 band density, % untr control",RanGAP1; [3],80.44%
same,"RanGAP1 band density, % untr control","RanGAP1; Supernatant, RNA, blot 1",83.26%
same,"RanGAP1 band density, % untr control","RanGAP1; Supernatant, RNA, blot 2",119.18%
same,"RanGAP1 band density, % untr control",RanGAP1; [4],131.44%
same,"RanGAP1 band density, % untr control",RanGAP1; [5],105.30%
same,"ImpA band density, % untr control","importin α; Pellet, RNA, blot 1",93.99%
same,"ImpA band density, % untr control","importin α; Pellet, RNA, blot 2",102.25%
same,"ImpA band density, % untr control",importin α; [2],106.73%
same,"ImpA band density, % untr control",importin α; [3],98.70%
same,"ImpA band density, % untr control","importin α; Supernatant, RNA, blot 1",83.82%
same,"ImpA band density, % untr control","importin α; Supernatant, RNA, blot 2",115.58%
same,"ImpA band density, % untr control",importin α; [4],82.83%
same,"ImpA band density, % untr control",importin α; [5],108.20%
same,"TNPO1 band density, % untr control","transportin-1 (Tnpo1); Pellet, RNA, blot 1",84.30%
same,"TNPO1 band density, % untr control","transportin-1 (Tnpo1); Pellet, RNA, blot 2",68.79%
same,"TNPO1 band density, % untr control",transportin-1 (Tnpo1); [2],107.97%
same,"TNPO1 band density, % untr control",transportin-1 (Tnpo1); [3],107.46%
same,"TNPO1 band density, % untr control","transportin-1 (Tnpo1); Supernatant, RNA, blot 1",64.64%
same,"TNPO1 band density, % untr control","transportin-1 (Tnpo1); Supernatant, RNA, blot 2",100.29%
same,"TNPO1 band density, % untr control",transportin-1 (Tnpo1); [4],66.29%
same,"TNPO1 band density, % untr control",transportin-1 (Tnpo1); [5],92.01%
same,Aggregate formation in cell lysate,[1],did not observe GA-induced aggregate formation
same,"TDP43 band density, % untr control","TDP-43; Pellet, RNA, blot 1",112.48%
same,"TDP43 band density, % untr control","TDP-43; Pellet, RNA, blot 2",99.51%
same,"TDP43 band density, % untr control",TDP-43; [2],116.61%
same,"TDP43 band density, % untr control",TDP-43; [3],120.53%
same,"TDP43 band density, % untr control","TDP-43; Supernatant, RNA, blot 1",88.02%
same,"TDP43 band density, % untr control","TDP-43; Supernatant, RNA, blot 2",100.78%
same,"TDP43 band density, % untr control",TDP-43; [4],86.33%
same,"TDP43 band density, % untr control",TDP-43; [5],98.73%
same,"ImpB band density, % untr control","importin β; Pellet, RNA, blot 1",90.07%
same,"ImpB band density, % untr control","importin β; Pellet, RNA, blot 2",91.42%
same,"ImpB band density, % untr control",importin β; [2],90.15%
same,"ImpB band density, % untr control",importin β; [3],102.12%
same,"ImpB band density, % untr control","importin β; Supernatant, RNA, blot 1",78.71%
same,"ImpB band density, % untr control","importin β; Supernatant, RNA, blot 2",123.36%
same,"ImpB band density, % untr control",importin β; [4],89.10%
same,"ImpB band density, % untr control",importin β; [5],114.58%
